The values that follow come from ChEMBL document CHEMBL4706520, “Development of disulfide-derived fructose-1,6-bisphosphatase (FBPase) covalent inhibitors for the treatment of type 2 diabetes” (Eur J Med Chem, 2020).

The source made the active and inactive calls. The rule behind the calls is not given here.

For data set [1], the target named is T1, Fructose-1,6-bisphosphatase 1 (Homo sapiens) (UniProt P09467).
T1 sequence (whole entry): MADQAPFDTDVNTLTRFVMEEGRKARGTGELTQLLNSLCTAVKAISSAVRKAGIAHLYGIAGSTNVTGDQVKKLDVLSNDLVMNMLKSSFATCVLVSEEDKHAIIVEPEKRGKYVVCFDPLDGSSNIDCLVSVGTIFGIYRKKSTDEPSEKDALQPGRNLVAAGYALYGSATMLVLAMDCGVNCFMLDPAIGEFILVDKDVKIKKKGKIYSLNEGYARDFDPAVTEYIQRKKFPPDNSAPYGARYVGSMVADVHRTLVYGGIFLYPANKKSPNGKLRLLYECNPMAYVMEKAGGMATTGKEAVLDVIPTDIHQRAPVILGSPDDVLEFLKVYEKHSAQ
Briefly: Inhibition of wild-type full-length human liver FBPase expressed in Escherichia coli BL21 (DE3) using FBP as substrate at 10 uM by malachite green dye-based assay. Format: single protein.

In data set [2] the test system is c1csc(SSc2nccs2)n1. Briefly: Covalent inhibition of FBPase R254A mutant (unknown origin) assessed as Vmax measured upto 45 mins by UV-visible spectrometry analysis. As to conditions: Homo sapiens; time min <=45.
The subject of data set [3] is c1csc(SSc2nccs2)n1. Nature of the data set: Covalent inhibition of FBPase D127A mutant (unknown origin) assessed as Vmax measured upto 45 mins by UV-visible spectrometry analysis. The conditions noted are these: Homo sapiens; time min <=45.
For data set [4], the system named is c1csc(SSc2nccs2)n1. Briefly: Covalent inhibition of FBPase R243A mutant (unknown origin) assessed as Vmax measured upto 45 mins by UV-visible spectrometry analysis. As to conditions: Homo sapiens; time min <=45.
In data set [5] the test system is c1csc(SSc2nccs2)n1. Briefly: Covalent inhibition of FBPase C92S mutant (unknown origin) assessed as Vmax measured upto 45 mins by UV-visible spectrometry analysis. The conditions noted are these: Homo sapiens.
The test system of data set [6] is c1csc(SSc2nccs2)n1. Nature of the data set: Covalent inhibition of FBPase C183S (unknown origin) upto 45 mins. As to conditions: Homo sapiens; time min <=45.
In data set [7] the test system is c1csc(SSc2nccs2)n1. Nature of the data set: Covalent inhibition of FBPase C183S (unknown origin) assessed as Vmax measured upto 45 mins. The conditions noted are these: Homo sapiens; time min <=45.
For data set [8], the system named is c1csc(SSc2nccs2)n1. Briefly: Covalent inhibition of FBPase S124A mutant (unknown origin) assessed as Vmax measured upto 45 mins by UV-visible spectrometry analysis. As to conditions: Homo sapiens; time min <=45.
The subject of data set [9] is c1csc(SSc2nccs2)n1. Briefly: Covalent inhibition of FBPase C128S mutant (unknown origin) assessed as Vmax measured upto 45 mins by UV-visible spectrometry analysis. As to conditions: Homo sapiens; time min <=45.
In data set [10] the test system is c1csc(SSc2nccs2)n1. Briefly: Covalent inhibition of FBPase N125A mutant (unknown origin) assessed as Vmax measured upto 45 mins by UV-visible spectrometry analysis. As to conditions: Homo sapiens; time min <=45.
The test system of data set [11] is c1csc(SSc2nccs2)n1. Briefly: Covalent inhibition of FBPase C116S mutant (unknown origin) assessed as Vmax measured upto 45 mins by UV-visible spectrometry analysis. As to conditions: Homo sapiens.
Data set [12] has as its system c1csc(SSc2nccs2)n1. Briefly: Covalent inhibition of FBPase C179S mutant (unknown origin) assessed as Vmax measured upto 45 mins by UV-visible spectrometry analysis. As to conditions: Homo sapiens; time min <=45.
Data set [13] has as its system c1csc(SSc2nccs2)n1. Nature of the data set: Covalent inhibition of FBPase C281S mutant (unknown origin) assessed as Vmax measured upto 45 mins by UV-visible spectrometry analysis. The conditions noted are these: Homo sapiens; time min <=45.
Data set [14] deals with c1csc(SSc2nccs2)n1. Nature of the data set: Covalent inhibition of FBPase Y258A mutant (unknown origin) assessed as Vmax measured upto 45 mins by UV-visible spectrometry analysis. The conditions noted are these: Homo sapiens; time min <=45.
Data set [15] relates to c1csc(SSc2nccs2)n1. Briefly: Covalent inhibition of FBPase C38S mutant (unknown origin) assessed as Vmax measured at 45 mins by UV-visible spectrometry analysis. The conditions noted are these: Homo sapiens.
The species entered for data set [16] is Homo sapiens. Nature of the data set: Selectivity index, ratio of IC50 for FBPase R243A mutant IC50 for FBPase WT (unknown origin).
For data set [17], the species on record is Homo sapiens. Briefly: Selectivity index, ratio of IC50 for FBPase C179S mutant IC50 for FBPase WT (unknown origin).
In data set [18] the test system is Mus musculus. Nature of the data set: Suppression of blood glucose concentration in 12 hrs fasted ICR mouse model at 25 mg/kg, ip measured upto 120 mins after oral administration of glucose at 2 g/kg for 60 min by oral glucose tolerance test. Format: functional, organism-based.
The species named for data set [19] is Homo sapiens. Briefly: Selectivity index, ratio of IC50 for FBPase R254A mutant IC50 for FBPase WT (unknown origin).
The next data set relates to Hepatocyte. Nature of the data set: Inhibition of gluconeogenesis in C57BLKS mouse primary hepatocytes assessed as inhibition of glucose output measured after 6 hrs. As to conditions: dose 0.5-100 µmol/L. Format: functional, cell-based.
Data set [20] concerns Mus musculus. Briefly: Hypoglycemic activity in 2 hrs fasted db/db mouse model assessed as reduction in blood glucose AUC at 25 mg/kg, ip measured upto 120 mins after oral administration of glucose at 2 g/kg for 60 min by oral glucose tolerance test. The format is functional, organism-based.
For data set [21], the species on record is Homo sapiens. Briefly: Selectivity index, ratio of IC50 for FBPase S124A mutant IC50 for FBPase WT (unknown origin).
Data set [22] has as its system Mus musculus. Briefly: Suppression of blood glucose concentration in 12 hrs fasted ICR mouse model at 12.5 mg/kg, ip measured upto 120 mins after oral administration of glucose at 2 g/kg for 60 min by oral glucose tolerance test. The format is functional, organism-based.
The species named for data set [23] is Homo sapiens. Nature of the data set: Selectivity index, ratio of IC50 for FBPase D127A mutant IC50 for FBPase WT (unknown origin).
The species named for data set [24] is Homo sapiens. Briefly: Selectivity index, ratio of IC50 for FBPase C116S mutant IC50 for FBPase WT (unknown origin).
Data set [25] is filed under the species Homo sapiens. Briefly: Selectivity index, ratio of IC50 for FBPase N125A mutant IC50 for FBPase WT (unknown origin).
The species named for data set [26] is Homo sapiens. Briefly: Selectivity index, ratio of IC50 for FBPase WT (unknown origin) to IC50 for FBPase […] mutant IC50 for FBPase WT (unknown origin).
The species named for data set [27] is Homo sapiens. Briefly: Selectivity index, ratio of IC50 for FBPase C183S mutant IC50 for FBPase WT (unknown origin).
The species named for data set [28] is Homo sapiens. Nature of the data set: Selectivity index, ratio of IC50 for FBPase C38S mutant IC50 for FBPase WT (unknown origin).
Data set [29] concerns the target T1, Fructose-1,6-bisphosphatase 1 (Homo sapiens). Briefly: Covalent binding affinity to FBPase WT (unknown origin) assessed as maximum peak absorption measured upto 45 mins by UV-visible spectroscopy (reference value: 283 nm). The conditions noted are these: time min <=45.
Data set [30] is filed under the species Homo sapiens. Briefly: Selectivity index, ratio of IC50 for FBPase C128S mutant IC50 for FBPase WT (unknown origin).
For data set [31], the species on record is Homo sapiens. Briefly: Selectivity index, ratio of IC50 for FBPase C92S mutant IC50 for FBPase WT (unknown origin).
Data set [32] concerns Mus musculus. Nature of the data set: Hypoglycemic activity in 2 hrs fasted db/db mouse model assessed as reduction in blood glucose AUC at 12.5 mg/kg, ip measured upto 120 mins after oral administration of glucose at 2 g/kg for 60 min by oral glucose tolerance test. Format: functional, organism-based.
For data set [33], the system named is Mus musculus. Briefly: Suppression of blood glucose concentration in 12 hrs fasted db/db mouse model at 12.5 mg/kg, ip measured upto 120 mins after oral administration of glucose at 2 g/kg for 60 min by oral glucose tolerance test. Format: functional, organism-based.
Data set [34] is filed under the species Homo sapiens. Briefly: Selectivity index, ratio of IC50 for FBPase Y258A mutant IC50 for FBPase WT (unknown origin).

By inhibition is commonly meant the change of the read-out against control, counted positive when it falls. `CCN(CC)C(=S)CSC(=S)N(CC)CC` returned an inhibition in data set [1] of 21.4%.

The compound `CN1CCN(C(=S)SSC(=S)N2CCN(C)CC2)CC1` had an inhibition in data set [1] of 26.2%.

In data set [1], `S=C(SSC(=S)N1CCc2ccccc21)N1CCc2ccccc21` yielded an inhibition of 39.9%.

Take `COc1ccc2nc(SSc3nc4ccc(OC)cc4s3)sc2c1`: in data set [1], the inhibition came to 44.7%.

In the case of `Cn1ccnc1SSc1nccn1C`, in data set [1], the inhibition is 9.65%.

In [1], `Clc1ccc(SSc2ccc(Cl)cc2)cc1` gave an inhibition of 18%.

With `S=C(SSC(=S)N1CCc2ccccc2C1)N1CCc2ccccc2C1`, in data set [1], the inhibition is 38.4%.

In data set [1], `S=C(SSC(=S)n1c2ccccc2c2ccccc21)n1c2ccccc2c2ccccc21` came in with an inhibition of 39.7%.

Compound `CCN(CC)C(=S)SCSC(=S)N(CC)CC` showed an inhibition in [1] of 12.4%.

As for `CN(C(=S)SSC(=S)N(C)c1ccccc1)c1ccccc1`, the inhibition in data set [1] stood at 35.7%.

In data set [1], `C[C@@H]1CN(C(=S)SSC(=S)N2C[C@@H](C)O[C@@H](C)C2)C[C@H](C)O1` gave an inhibition of 37.7%.

In data set [1], `c1csc(SSc2cccs2)c1` came in with an inhibition of 50.6%.

`CCN(CC)C(=O)SSC(=O)N(CC)CC` registered an inhibition in [1] of 2.59%.

In turn, `CN(C(=S)SSC(=S)N(C)c1ccc(-c2ccccc2)cc1)c1ccc(-c2ccccc2)cc1` displayed an inhibition in data set [1] of 32.4%.

`S=C(SSC(=S)N1CC2CCCCC2C1)N1CC2CCCCC2C1` (centres undefined) gave an inhibition in [1] of 37.2%.

As to “Fructose-1,6-bisphosphatase 1 (Homo sapiens) (from UniProt P09467) UNDEFINED MUTATION”, the Vmax came to 3.5 U/mg in the data set on c1csc(SSc2nccs2)n1 [2]; 1.9 U/mg in the data set with c1csc(SSc2nccs2)n1 [3]; 2.5 U/mg with c1csc(SSc2nccs2)n1 [4]; 1.6 U/mg in the data set with c1csc(SSc2nccs2)n1 [5]; 0.21 U/mg in the data set on c1csc(SSc2nccs2)n1 [6]; 3.8 U/mg in the data set with c1csc(SSc2nccs2)n1 [7]. Moreover, the Vmax in the data set on c1csc(SSc2nccs2)n1 [8] is 5 U/mg; in the data set on c1csc(SSc2nccs2)n1 [9], 2.7 U/mg; in the data set with c1csc(SSc2nccs2)n1 [10] it was 1.5 U/mg; in the data set on c1csc(SSc2nccs2)n1 [11], 1.6 U/mg; in the data set on c1csc(SSc2nccs2)n1 [12], 2.3 U/mg; in the data set on c1csc(SSc2nccs2)n1 [13], 3.6 U/mg. For the same compound, the values for the Vmax in the data set with c1csc(SSc2nccs2)n1 [14] and in the data set with c1csc(SSc2nccs2)n1 [15] were 5 U/mg and 2.7 U/mg, respectively.

As to `CCCN(CCC)C(=S)SSC(=S)N(CCC)CCC`, the inhibition in [1] was 13.6%.

On to `O=[N+]([O-])c1ccc2nc(SSc3nc4ccc([N+](=O)[O-])cc4s3)sc2c1`, for which the inhibition in data set [1] came to 18.4%.

For the compound `CCN(CC)C(=S)SC(=S)N(CC)CC`, in data set [1], the inhibition came out at 18%.

In turn, `CC(C)N(C(=S)SSC(=S)N(C(C)C)C(C)C)C(C)C` gave an inhibition in [1] of 47.8%.

On to `c1ccc(SSc2ccccc2)cc1`, for which, in data set [1], the inhibition was 10.4%.

Turning to `c1csc(SSC2CCCC2)n1`, the inhibition in data set [1] amounted to 34.3%.

In data set [1], `CCN(CC)C(=O)CSC(=S)N(CC)CC` came in with an inhibition of 3.22%.

Compound `C1CCC(SSC2CCCCC2)CC1` displayed an inhibition in [1] of 12.4%.

In the case of `S=C(SSC(=S)N1CCCc2ccccc21)N1CCCc2ccccc21`, the inhibition in [1] turned out to be 9.87%.

`S=C(SSC(=S)N1CCOCC1)N1CCOCC1`: the inhibition in [1] amounted to 26.1%.

As to `Cc1cccn1C(=S)SSC(=S)n1cccc1C`, in [1], the inhibition is 29.4%.

Compound `CN(Cc1ccccc1)C(=S)SSC(=S)N(C)Cc1ccccc1` had an inhibition in [1] of 3.09%.

In the case of `c1csc(SSc2nccs2)n1`, the Ratio IC50 in the data set filed under Homo sapiens [16] was over 1; in the data set filed under Homo sapiens [17], 0.6; in the data set filed under Homo sapiens [19], 2.3; in the data set listed under Homo sapiens [21], 1.7; in the data set listed under Homo sapiens [23], 0.7; in the data set listed under Homo sapiens [24] it was 0.7. Further, the Ratio IC50 in the data set filed under Homo sapiens [25] was over 926; in the data set listed under Homo sapiens [26], 0.7; in the data set filed under Homo sapiens [27] it was 0.8; in the data set listed under Homo sapiens [28], 1.1; in the data set listed under Homo sapiens [30], over 1850; in the data set listed under Homo sapiens [31], 0.5. Moreover, in the data set listed under Homo sapiens [34], the Ratio IC50 came out at 11.5. For the same compound, the inhibition entry in the data set on Mus musculus [18], in the data set on Mus musculus [20], in the data set on Mus musculus [22], with Mus musculus [32] and in the data set with Mus musculus [33] was “Active” each time. In the data set on Hepatocyte, the inhibition result was “Dose-dependent effect”. Also, the lambda max in data set [29] came to 306 nm.

The compound `O=C(O)C1CCN(C(=S)SSC(=S)N2CCC(C(=O)O)CC2)CC1` gave an inhibition in data set [1] of 47.6%.

In data set [1], `S=C(SSC(=S)N1CCC1)N1CCC1` returned an inhibition of 28.5%.

In turn, `S=C(SSC(=S)n1ncc2ccccc21)n1ncc2ccccc21` displayed an inhibition in data set [1] of 47.6%.
